This note sets out measurements from patent publication US20250120961A1, “P53 MODULATORS” (Nested Therapeutics, Inc., priority 2023, published 2025).

The target in the experiment is His-tagged p53-Y220C DNA binding domain (Homo sapiens, UniProt P04637, Y220C). The experiment in a line: Biochemical p53-Y220C and DNA binding assay (HTRF). The note with it: inflection point of 10 points dose titration, 4 parameter curve fit; p53-Y220C DBD 100 nM, biotinylated dsDNA 200 nM, 27 to 29° C.; read-out: HTRF IP. An excerpt:
Biological Example 1. Biochemical p53-Y220C and DNA Binding Assay
The compounds of this invention can bind to p53-Y220C and increase the ability of the mutant p53 to bind to DNA at higher temperatures. His-tagged p53-Y220C DNA binding domain containing amino acid 94-312 is used to measure DNA binding activities in vitro with the sequence described below. (SEQ ID NO: 1: […]. Biotin labeled double strand DNA (dsDNA) containing consensus p53 binding sequence (SEQ ID NO: 2: Forward: 5′-(biotin)-[…]-3′; Reverse: 5′-(biotin)-[…]-3′) is used to measure protein-DNA binding activities. Compounds, His-tagged p53-Y220C DBD proteins (100 nM), and biotinylated dsDNA (200 nM) were mixed in ice-cold assay buffer containing DPBS, 20 mM NaCl, and 0.5% BAS, and incubated at 4° C. overnight in 384-well plate. Plates were transferred to incubator at 27 to 29° C. with constant shaking for 60 minutes. Equal volume of Homogeneous Time-Resolved Fluorescence (HTRF) dyes containing mAb anti-6HIS Tb cryptate gold and d2 labeled streptavidin in the assay buffer was added to each well and incubated at 27 to 29° C. with constant shaking for 60 minutes. The plate was read using Envision multimode plate reader. Reference compound 1 was used as high control and DMSO was used as low control. The percentage activation (A %) of protein-DNA binding by compounds was normalized by setting up high control (reference compound) as […] and low control (DMSO) as 0% (A %=(HTRF ratio of compound-HTRF ratio of low control)/(HTRF ratio of high control-HTRF ratio of low control)*500). 10 points dose titration curves for each compound were analyzed by 4 parameter curve fit and inflection point (IP) was reported. Reference compound 1 is shown below Table 1. Compounds of the invention are active in the HTRF assay. Data in Table 1 collected using Biological Example 1.
A general note: TR-FRET usually uses a lanthanide donor and a delayed reading to cut background.

Take `CC[C@H](CO)O/N=C/c1sc2c(NC3CNCC3F)cccc2c1CC(F)(F)F` (stereo in doubt) [Example 1-4, (E)-7-(((3S,4R)-4-fluoropyrrolidin-3-yl)amino)-3-(2,2,2-trifluoroethyl)benzo[b]thiophene-2-carbaldehyde O-((R)-1-hydroxybutan-2-yl) oxime]: the EC50 was over 1 µM. In the case of `CC(O)(CO/N=C/c1sc2c(N[C@@H]3CNC[C@@H]3F)cccc2c1CC(F)(F)F)c1ccccc1` (stereo in doubt) [Example 1-24, (E)-7-(((3R,4S)-4-fluoropyrrolidin-3-yl)amino)-3-(2,2,2-trifluoroethyl)benzo[b]thiophene-2-carbaldehyde O-(2-hydroxy-2-phenylpropyl) oxime] it was 0.1 to 1 µM. In the case of `CC[C@@H](O)CO/N=C/c1sc2c(N[C@@H]3CNC[C@@H]3F)cccc2c1CC(F)(F)F` [Example 1-1, (E)-7-(((3R,4S)-4-fluoropyrrolidin-3-yl)amino)-3-(2,2,2-trifluoroethyl)benzo[b]thiophene-2-carbaldehyde O-((R)-2-hydroxybutyl) oxime] it was 0.1 to 1 µM; in that of `CC[C@@H](CO)O/N=C/c1sc2c(N[C@@H]3CNC[C@@H]3F)cccc2c1CC(F)(F)F` [Example 1-2, (E)-7-(((3R,4S)-4-fluoropyrrolidin-3-yl)amino)-3-(2,2,2-trifluoroethyl)benzo[b]thiophene-2-carbaldehyde O-((S)-1-hydroxybutan-2-yl) oxime], over 1 µM; in that of `CC[C@H](O)CO/N=C/c1sc2c(N[C@@H]3CNC[C@@H]3F)cccc2c1CC(F)(F)F` [Example 1-3, (E)-7-(((3R,4S)-4-fluoropyrrolidin-3-yl)amino)-3-(2,2,2-trifluoroethyl)benzo[b]thiophene-2-carbaldehyde O-((S)-2-hydroxybutyl) oxime], 0.1 to 1 µM. Take `OC(CO/N=C/c1sc2c(N[C@@H]3CNC[C@@H]3F)cccc2c1CC(F)(F)F)C(F)(F)F` (stereo partly drawn) [Example 1-5, (E)-7-(((3R,4S)-4-fluoropyrrolidin-3-yl)amino)-3-(2,2,2-trifluoroethyl)benzo[b]thiophene-2-carbaldehyde O-(3,3,3-trifluoro-2-hydroxypropyl) oxime]: the EC50 fell in the range of 0.1 to 1 µM. In the case of `OCC(O)CO/N=C/c1sc2c(N[C@@H]3CNC[C@@H]3F)cccc2c1CC(F)(F)F` (stereo partly drawn) [Example 1-6, (E)-7-(((3R,4S)-4-fluoropyrrolidin-3-yl)amino)-3-(2,2,2-trifluoroethyl)benzo[b]thiophene-2-carbaldehyde O-(2,3-dihydroxypropyl) oxime] it was 0.1 to 1 µM; in that of `CC(C)(O)CO/N=C/c1sc2c(N[C@@H]3CNC[C@@H]3F)cccc2c1CC(F)(F)F` [Example 1-7, (E)-7-(((3R,4S)-4-fluoropyrrolidin-3-yl)amino)-3-(2,2,2-trifluoroethyl)benzo[b]thiophene-2-carbaldehyde O-(2-hydroxy-2-methylpropyl) oxime], under 0.1 µM. Consider `NCC(O)CO/N=C/c1sc2c(N[C@@H]3CNC[C@@H]3F)cccc2c1CC(F)(F)F` (stereo partly drawn) [Example 1-8, (E)-7-(((3R,4S)-4-fluoropyrrolidin-3-yl)amino)-3-(2,2,2-trifluoroethyl)benzo[b]thiophene-2-carbaldehyde O-(3-amino-2-hydroxypropyl)oxime], for which the EC50 was in the range of 0.1 to 1 µM. Take `NCC(CO)O/N=C/c1sc2c(N[C@@H]3CNC[C@@H]3F)cccc2c1CC(F)(F)F` (stereo partly drawn) [Example 1-9, (E)-7-(((3R,4S)-4-fluoropyrrolidin-3-yl)amino)-3-(2,2,2-trifluoroethyl)benzo[b]thiophene-2-carbaldehyde O-(1-amino-3-hydroxypropan-2-yl) oxime]: the EC50 is over 1 µM. In the case of `COCC(O)CO/N=C/c1sc2c(N[C@@H]3CNC[C@@H]3F)cccc2c1CC(F)(F)F` (stereo partly drawn) [Example 1-10, (E)-7-(((3R,4S)-4-fluoropyrrolidin-3-yl)amino)-3-(2,2,2-trifluoroethyl)benzo[b]thiophene-2-carbaldehyde O-(2-hydroxy-3-methoxypropyl) oxime] it was 0.1 to 1 µM; in that of `COCC(CO)O/N=C/c1sc2c(N[C@@H]3CNC[C@@H]3F)cccc2c1CC(F)(F)F` (stereo partly drawn) [Example 1-11, (E)-7-(((3R,4S)-4-fluoropyrrolidin-3-yl)amino)-3-(2,2,2-trifluoroethyl)benzo[b]thiophene-2-carbaldehyde O-(1-hydroxy-3-methoxypropan-2-yl) oxime], over 1 µM. Take `OC1(CO/N=C/c2sc3c(N[C@@H]4CNC[C@@H]4F)cccc3c2CC(F)(F)F)CCNC1` (stereo partly drawn) [Example 1-12, (E)-7-(((3R,4S)-4-fluoropyrrolidin-3-yl)amino)-3-(2,2,2-trifluoroethyl)benzo[b]thiophene-2-carbaldehyde O-((3-hydroxypyrrolidin-3-yl)methyl) oxime]: the EC50 lay in the range of 0.1 to 1 µM.

On to `OCC1(O/N=C/c2sc3c(N[C@@H]4CNC[C@@H]4F)cccc3c2CC(F)(F)F)CCNC1` (stereo partly drawn) [Example 1-13, (E)-7-(((3R,4S)-4-fluoropyrrolidin-3-yl)amino)-3-(2,2,2-trifluoroethyl)benzo[b]thiophene-2-carbaldehyde O-(3-(hydroxymethyl)pyrrolidin-3-yl) oxime], for which the EC50 was over 1 µM. In the case of `OC1(CO/N=C/c2sc3c(N[C@@H]4CNC[C@@H]4F)cccc3c2CC(F)(F)F)CCCC1` [Example 1-14, (E)-7-(((3R,4S)-4-fluoropyrrolidin-3-yl)amino)-3-(2,2,2-trifluoroethyl)benzo[b]thiophene-2-carbaldehyde O-((1-hydroxycyclopentyl)methyl) oxime] it was 0.1 to 1 µM; in that of `OC1(CO/N=C/c2sc3c(N[C@@H]4CNC[C@@H]4F)cccc3c2CC(F)(F)F)CCCOC1` (stereo partly drawn) [Example 1-15, (E)-7-(((3R,4S)-4-fluoropyrrolidin-3-yl)amino)-3-(2,2,2-trifluoroethyl)benzo[b]thiophene-2-carbaldehyde O-((3-hydroxytetrahydro-2H-pyran-3-yl)methyl) oxime], 0.1 to 1 µM; in that of `OCC1(O/N=C/c2sc3c(N[C@@H]4CNC[C@@H]4F)cccc3c2CC(F)(F)F)CCCOC1` (stereo partly drawn) [Example 1-16, (E)-7-(((3R,4S)-4-fluoropyrrolidin-3-yl)amino)-3-(2,2,2-trifluoroethyl)benzo[b]thiophene-2-carbaldehyde O-(3-(hydroxymethyl)tetrahydro-2H-pyran-3-yl) oxime], over 1 µM. For `OC1CCCC1O/N=C/c1sc2c(N[C@@H]3CNC[C@@H]3F)cccc2c1CC(F)(F)F` (stereo partly drawn) [Example 1-17, (E)-7-(((3R,4S)-4-fluoropyrrolidin-3-yl)amino)-3-(2,2,2-trifluoroethyl)benzo[b]thiophene-2-carbaldehyde O-(2-hydroxycyclopentyl) oxime], the EC50 is 0.1 to 1 µM. Take `OC1(CO/N=C/c2sc3c(N[C@@H]4CNC[C@@H]4F)cccc3c2CC(F)(F)F)CCC1` [Example 1-18, (E)-7-(((3R,4S)-4-fluoropyrrolidin-3-yl)amino)-3-(2,2,2-trifluoroethyl)benzo[b]thiophene-2-carbaldehyde O-((1-hydroxycyclobutyl)methyl) oxime]: the EC50 was in the range of 0.1 to 1 µM. As for `OCC1(O/N=C/c2sc3c(N[C@@H]4CNC[C@@H]4F)cccc3c2CC(F)(F)F)CCC1` [Example 1-19, (E)-7-(((3R,4S)-4-fluoropyrrolidin-3-yl)amino)-3-(2,2,2-trifluoroethyl)benzo[b]thiophene-2-carbaldehyde O-(1-(hydroxymethyl)cyclobutyl) oxime], the EC50 was in the range of 0.1 to 1 µM.

Consider `OC1(CO/N=C/c2sc3c(N[C@@H]4CNC[C@@H]4F)cccc3c2CC(F)(F)F)CCOCC1` [Example 1-20, (E)-7-(((3R,4S)-4-fluoropyrrolidin-3-yl)amino)-3-(2,2,2-trifluoroethyl)benzo[b]thiophene-2-carbaldehyde O-((4-hydroxytetrahydro-2H-pyran-4-yl)methyl) oxime], for which the EC50 was 0.1 to 1 µM.

Regarding `OCC1(O/N=C/c2sc3c(N[C@@H]4CNC[C@@H]4F)cccc3c2CC(F)(F)F)CCOCC1` [Example 1-21, (E)-7-(((3R,4S)-4-fluoropyrrolidin-3-yl)amino)-3-(2,2,2-trifluoroethyl)benzo[b]thiophene-2-carbaldehyde O-(4-(hydroxymethyl)tetrahydro-2H-pyran-4-yl) oxime], the EC50 was over 1 µM. With `CC(O)(CO/N=C\c1sc2c(N[C@@H]3CNC[C@@H]3F)cccc2c1CC(F)(F)F)c1ccccc1` (stereo partly drawn) [Example 1-22, (Z)-7-(((3R,4S)-4-fluoropyrrolidin-3-yl)amino)-3-(2,2,2-trifluoroethyl)benzo[b]thiophene-2-carbaldehyde O-(2-hydroxy-2-phenylpropyl) oxime], the EC50 is 0.1 to 1 µM. In the case of `CC(CO)(O/N=C/c1sc2c(N[C@@H]3CNC[C@@H]3F)cccc2c1CC(F)(F)F)c1ccccc1` (stereo partly drawn) [Example 1-23, (E)-7-(((3R,4S)-4-fluoropyrrolidin-3-yl)amino)-3-(2,2,2-trifluoroethyl)benzo[b]thiophene-2-carbaldehyde O-(1-hydroxy-2-phenylpropan-2-yl) oxime] it was over 1 µM.
